Test system: 922993-354-T-J3-PDC complex spheroid viability
Assay: Anticancer human tumor 922993-354-T-J3-PDC patient-derived endometrial carcinoma cell line growth inhibition [POLQ]
Details: for IC50: curve of first compound; for viability, T/C: stronger effect = lower value
Outline: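 Patient-derived tumour cells were co-cultured with HUVEC and mesenchymal stem cells as multicellular spheroids at 37 °C. They were treated with POLQ inhibitors (novobiocin, ART-558, RP6685) alone or combined with other agents. Top concentrations were at or near clinical Cmax (otherwise 10 microM; SN-38 at 1 microM), decreasing in half-log steps.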
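Note: spheroids exposed to the agents for one week.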
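Throughout, for viability, T/C: 100% = DMSO vehicle control wells.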

COc1cccc2c1C(=O)c1c(O)c3c(c(O)c1C2=O)CC(O)(C(=O)CO)CC3OC1CC(N)C(O)C(C)O1 (configuration not stated) + Cc1cccc(N(C)C(=O)C2C(O)CCN2c2nc(C)cc(C(F)(F)F)c2C#N)c1 showed an IC50 (second compound 0.0316 µM) of 1.27 µM, an IC50 (second compound 0.1 µM) of 1.21 µM and an IC50 (second compound 0.316 µM) of 0.947 µM. The IC50 (second compound 1 µM) was 1.12 µM, the IC50 (second compound 3.16 µM) was 0.555 µM and the IC50 (second compound 10 µM) was 0.186 µM. The viability, T/C (second compound 0.0316 µM, first compound 0.0316 µM) was 96.3%, the viability, T/C (second compound 0.0316 µM, first compound 0.1 µM) was 88% and the viability, T/C (second compound 0.0316 µM, first compound 0.316 µM) was 81.4%. It also gave a viability, T/C (second compound 0.0316 µM, first compound 1 µM) of 51.8%, a viability, T/C (second compound 0.0316 µM, first compound 3.16 µM) of 32.3% and a viability, T/C (second compound 0.0316 µM, first compound 10 µM) of 11.7%. For the same molecule, the viability, T/C (second compound 0.1 µM, first compound 0.0316 µM) was 101%, the viability, T/C (second compound 0.1 µM, first compound 0.1 µM) was 97.2% and the viability, T/C (second compound 0.1 µM, first compound 0.316 µM) was 81.6%. For the same molecule, the viability, T/C (second compound 0.1 µM, first compound 1 µM) was 55.1%, the viability, T/C (second compound 0.1 µM, first compound 3.16 µM) was 26.4% and the viability, T/C (second compound 0.1 µM, first compound 10 µM) was 11.6%. The viability, T/C (second compound 0.316 µM, first compound 0.0316 µM) was 103%, the viability, T/C (second compound 0.316 µM, first compound 0.1 µM) was 92.7% and the viability, T/C (second compound 0.316 µM, first compound 0.316 µM) was 84.9%. The viability, T/C (second compound 0.316 µM, first compound 1 µM) was 45%, the viability, T/C (second compound 0.316 µM, first compound 3.16 µM) was 27.2% and the viability, T/C (second compound 0.316 µM, first compound 10 µM) was 12.9%. For the same molecule, the viability, T/C (second compound 1 µM, first compound 0.0316 µM) was 105%, the viability, T/C (second compound 1 µM, first compound 0.1 µM) was 95.9% and the viability, T/C (second compound 1 µM, first compound 0.316 µM) was 72.6%. The viability, T/C (second compound 1 µM, first compound 1 µM) was 53.6%, the viability, T/C (second compound 1 µM, first compound 3.16 µM) was 28.8% and the viability, T/C (second compound 1 µM, first compound 10 µM) was 10.3%. The viability, T/C (second compound 3.16 µM, first compound 0.0316 µM) was 88.2%, the viability, T/C (second compound 3.16 µM, first compound 0.1 µM) was 93.3% and the viability, T/C (second compound 3.16 µM, first compound 0.316 µM) was 60.3%. The viability, T/C (second compound 3.16 µM, first compound 1 µM) was 35.8%, the viability, T/C (second compound 3.16 µM, first compound 3.16 µM) was 17.7% and the viability, T/C (second compound 3.16 µM, first compound 10 µM) was 7.76%. The viability, T/C (second compound 10 µM, first compound 0.0316 µM) was 94.3%, the viability, T/C (second compound 10 µM, first compound 0.1 µM) was 65.2% and the viability, T/C (second compound 10 µM, first compound 0.316 µM) was 38.3%. It also gave a viability, T/C (second compound 10 µM, first compound 1 µM) of 16.5%, a viability, T/C (second compound 10 µM, first compound 3.16 µM) of 11.8% and a viability, T/C (second compound 10 µM, first compound 10 µM) of 11.6%.
